Results published in US20240277713A1 (Kadmon Corporation, LLC, priority 2022, published 2024).

How the values were obtained:
[1] = tested on: New Zealand White rabbits; experiment: Pilot prenatal developmental toxicity study in New Zealand White rabbits with non-pregnant dose range finding phase (Example 2)
Experimental: The study was conducted in two phases: Phase A was a dose range finding tolerance study with non-pregnant rabbits, and Phase B was the pilot developmental toxicity study.
All fetuses were given the appropriate external examination.

[2] = tested on: bacterial; experiment: in vitro bacterial mutagenicity (Ames) assay; assay type: cell-based
[3] = biological target: CYP2C19 (Homo sapiens, UniProt P33261); experiment: Enzyme systems in vitro: CYP2C19; assay type: in vitro ADME
[4] = Toxicokinetics in pregnant Sprague-Dawley rats (Example 1); assay type: in vivo, rat; conditions: female, Sprague-Dawley, rat, in vivo, po, 25 mg base/kg/day
[5] = Pharmacokinetics in chronic GVHD patients; assay type: in vivo, human
[6] = Toxicokinetic evaluation in pregnant rats (Example 3); assay type: in vivo, rat; conditions: for Cmax / AUC(0-t): female, Sprague-Dawley, rat, plasma, po; for AUC(0-t): read-out: Mean AUC0-24 in plasma of pregnant rats
Description: Animals received in-life and postmorten evaluations.

[7] = tested on: Sprague-Dawley rats; experiment: Fertility and early embryonic development to implantation study in Sprague-Dawley rats (Example 5)
Description: This study design used naive animals of both sexes, incorporated treatment of both sexes, and provided for a recovery period for the treated males based on study outcome.
Male and female Sprague-Dawley (SD) rats were obtained from Charles River Laboratories, Raleigh, North Carolina (approximately 7 to 10 weeks of age). Using a standard, by weight, randomization procedure, 273 male and 273 female animals (weighing 229 to 497 g and 169 to 242 g, respectively, at randomization) were assigned to control, treatment, and toxicokinetic (TK) groups. The dose volume for each group was 10 mL/kg providing a dose concentration in mg/base/mL of one tenth the dose level). (In Table 24, T=Treated; U=Untreated).
Dosing began at 11 weeks of age and 70 days prior to pairing (with untreated females) for the treated males, and 14 days prior to pairing (with untreated males) for the treated females. Dosing of the males continued through the mating and postmating period to euthanasia, while dosing of the females continued through the mating period to GD 7. Females with no evidence of mating were dosed for 7 days following completion of the mating period. Males designated for the recovery phase were dosed for 70 days, and then received a 77 day recovery period.
Animals were observed cageside, for detailed clinical changes, body weights, food consumption, estrous cycle determinations, plasma analysis, sperm analysis, toxicokinetic analysis, and anatomical pathology including uterine and ovarian examinations.
Cageside observations were made at least twice daily.
Detailed clinical observations were made during treatment phases: for males, twice weekly during treatment (4 hours+/−1 hour on dosing days), and for females, daily during treatment (4 hours+/−1 hour on dosing days). During non-treatment phases (males and females), detailed clinical observations occurred weekly and also prior to the scheduled uterine examination (females) on GD 13.
For each endpoint, treatment groups were compared to the control group using the analysis outlined in Table 25. Data for some endpoints, as indicated, were transformed by an arcsin-square root transformation prior to conducting the specified analysis.

[8] = biological target: T1, OATP1B1 (Homo sapiens, UniProt Q9Y6L6); experiment: Transporter systems in vitro: OATP1B1; assay type: in vitro ADME; conditions: clinically relevant concentrations
T1 sequence (Q9Y6L6 1-691): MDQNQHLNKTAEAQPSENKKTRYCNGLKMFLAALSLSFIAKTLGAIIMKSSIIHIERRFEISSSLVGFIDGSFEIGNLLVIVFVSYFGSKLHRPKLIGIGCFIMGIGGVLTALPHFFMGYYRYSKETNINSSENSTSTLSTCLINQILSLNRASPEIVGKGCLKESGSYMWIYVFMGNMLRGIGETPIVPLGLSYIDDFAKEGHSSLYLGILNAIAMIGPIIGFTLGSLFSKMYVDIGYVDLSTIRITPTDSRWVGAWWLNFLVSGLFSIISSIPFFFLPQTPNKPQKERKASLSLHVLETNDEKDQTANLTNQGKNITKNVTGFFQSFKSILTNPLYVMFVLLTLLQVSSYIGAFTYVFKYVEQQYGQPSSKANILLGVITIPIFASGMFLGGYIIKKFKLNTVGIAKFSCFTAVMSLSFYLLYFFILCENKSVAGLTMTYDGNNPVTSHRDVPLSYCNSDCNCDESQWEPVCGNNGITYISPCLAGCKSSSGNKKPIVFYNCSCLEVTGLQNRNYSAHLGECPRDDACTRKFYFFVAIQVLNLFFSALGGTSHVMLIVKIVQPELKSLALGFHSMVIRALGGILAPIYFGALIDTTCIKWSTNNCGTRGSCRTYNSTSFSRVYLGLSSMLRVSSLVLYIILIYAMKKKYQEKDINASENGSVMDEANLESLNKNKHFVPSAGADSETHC

[9] = 15 mg/kg/day, GD 6, belumosudil 15 mg base/kg oral
[10] = 15 mg/kg/day, GD 17, belumosudil 15 mg base/kg oral
[11] = 50 mg/kg/day, GD 6, belumosudil 50 mg base/kg oral
[12] = 50 mg/kg/day, GD 17, belumosudil 50 mg base/kg oral
[13] = 150 mg/kg/day, GD 6, belumosudil 150 mg base/kg oral
[14] = 150 mg/kg/day, GD 17, belumosudil 150 mg base/kg oral

Sequence of CYP2C19 (P33261 whole entry): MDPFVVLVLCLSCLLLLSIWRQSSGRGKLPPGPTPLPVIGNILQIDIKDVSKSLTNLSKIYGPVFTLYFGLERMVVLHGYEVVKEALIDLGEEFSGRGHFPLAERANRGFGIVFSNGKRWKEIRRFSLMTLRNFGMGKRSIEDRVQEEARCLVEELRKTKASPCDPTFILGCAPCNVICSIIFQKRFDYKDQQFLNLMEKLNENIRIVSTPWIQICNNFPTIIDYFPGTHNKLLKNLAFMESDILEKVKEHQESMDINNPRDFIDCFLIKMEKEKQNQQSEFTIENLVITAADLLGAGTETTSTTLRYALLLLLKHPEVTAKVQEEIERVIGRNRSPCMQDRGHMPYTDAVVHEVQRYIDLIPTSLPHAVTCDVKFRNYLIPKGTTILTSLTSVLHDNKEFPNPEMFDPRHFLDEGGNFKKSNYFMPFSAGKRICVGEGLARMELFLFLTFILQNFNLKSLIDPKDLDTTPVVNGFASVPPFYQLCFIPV

## CC(C)NC(=O)COc1cccc(-c2nc(Nc3ccc4[nH]ncc4c3)c3ccccc3n2)c1 [belumosudil, 2-{3-[4-(1H-indazol-5-ylamino)-2-quinazolinyl]phenoxy}-N-(propan-2-yl) acetamide]
[1]; 25 or 50 mg base/kg/day, GD 6-18
  maternal toxicity: no toxicologically relevant maternal toxicity was observed
[1]; 100 and 250 mg base/kg/day, dose-dependent
  maternal response: reduced body weight gain/loss, decreased food consumption, clinical signs
[1]; Phase A, 300 and 400 mg base/kg/day
  treatment-related effects: slight body weight losses and decreased food consumption
[1]; Phase B, any dose level (25-250 mg base/kg/day)
  embryo or fetal toxicity: no treatment-related embryo or fetal toxicity was apparent
[1]; pregnant rabbits
  NOAEL for developmental toxicity: 250 mg base/kg/day
  NOAEL for maternal toxicity: 50 mg base/kg/day
[1]; rabbit, in vivo
  survival: not affected
[2]
  genotoxicity, bacterial mutagenicity (Ames) assay: not genotoxic
[3]
  CYP2C19 inhibition: inhibitor
[4]; read-out: maternal AUC0-24
  AUC(0-t): 20400 ng·h/mL
[4]; read-out: maternal Cmax
  Cmax: 1800 ng/mL
[5]; 200 mg once daily
  mean (% CV) steady-state AUC: 22700 (48%) h·ng/mL
  mean (% CV) steady-state Cmax: 2390 (44%) ng/mL
[5]; age 18 to 77 years, weight 38.6 to 143 kg
  pharmacokinetics with regard to age, sex, weight, or mild to moderate renal impairment: No clinically significant differences
[5]; human, in vivo, oral, 200 mg once daily or twice daily, read-out: Median Tmax at steady state
  Tmax: 1.26 to 2.53 h
[5]; patients, % CV 39%
  mean elimination half-life: 19 h
[5]; patients, % CV 46%
  clearance: 9.83 L/h
[6]; [9]
  Cmax: 1530 ng/mL
  AUC(0-t): 9750 ng·h/mL
[6]; [10]
  Cmax: 1320 ng/mL
  AUC(0-t): 11900 ng·h/mL
[6]; [11]
  Cmax: 3000 ng/mL
  AUC(0-t): 37700 ng·h/mL
[6]; [12]
  Cmax: 4360 ng/mL
  AUC(0-t): 33300 ng·h/mL
[6]; [13]
  Cmax: 5150 ng/mL
  AUC(0-t): 89400 ng·h/mL
[6]; [14]
  Cmax: 7800 ng/mL
  AUC(0-t): 88300 ng·h/mL
[6]; pregnant rats
  accumulation after multiple dosing of belumosudil: No apparent accumulation
[7]; female rats
  NOAEL for female reproductive performance and fertility: 275 mg base/kg/day
[7]; female, Sprague-Dawley, rat, in vivo
  dose with adverse findings in female rats (increased pre- or post-implantation loss, decreased number of viable embryos): 275 mg/kg/day
[7]; male and female rats
  NOAEL for general toxicity endpoints: 50 mg base/kg/day
[7]; male rats
  NOAEL for male reproductive performance and fertility: 150 mg base/kg/day
[7]; male, Sprague-Dawley, rat, in vivo, po
  dose in male rats with abnormal sperm findings and testes/epididymis organ changes: 275 mg/kg/day
[7]; rat, in vivo
  reproductive and fertility indices, treated females: unaffected
[7]; treated females
  NOAEL for ovarian and uterine parameters: 150 mg base/kg/day
[8]
  OATP1B1 inhibition: inhibits
